Reference: paper PMC10698503, “Phosphatase specificity principles uncovered by MRBLE:Dephos and global substrate identification” (Molecular Systems Biology, 2023)
Non-standard residues stand in square brackets, D forms with d. No end group written: not given here. pT = C[C@@H](OP(=O)(O)O)[C@H](N)C(=O)O

How the values were obtained:
PP1γ [1] = biological target: T1, PP1γ (Homo sapiens, UniProt P36873); test: MRBLE:Pep concentration-dependent PP1 binding to bead-bound RVxF peptides; settings: bead-bound peptide, PP1 0-2,000 nM with anti-PP1 and Alexa 647 secondary antibody, 24 h at 4°C, 50 mM Tris pH 7.5, 150 mM NaCl, 0.1% TWEEN 20; median and SD across experimental replicates (n = 3); read-out: Kd, MRBLE-pep (Langmuir isotherm fit)
T1 construct: His; made in house; host or cells: E. coli BL21(DE3)
Procedure: After incubating bead‐bound peptide libraries with PP1, an unlabeled anti‐PP1 primary antibody, and an Alexa 647‐labeled secondary antibody, we washed beads and imaged again in both lanthanide and fluorescence channels to identify peptides and quantify the amount of PP1 bound (Fig 5A). Repeating these experiments over eight different PP1 concentrations enabled acquisition of concentration‐dependent binding curves; fitting the mean intensity of all beads with a given code at different concentrations of PP1γ and fitting to a Langmuir isotherm made it possible to quantify absolute affinities (Figs 5B and Appendix Fig S11).
PP1 concentration‐dependent binding to peptides on MRBLEs was done as described previously (Hein et al, [2021a]). In short, ~ 700 beads per code were mixed in and blocked in 700 μL PBS‐T with 5% BSA. PP1 (2 μM) was preincubated in binding buffer (50 mM Tris pH = 7.5, 150 mM NaCl, and 0.1% TWEEN 20) with 1 μM primary (a‐PPP1CC rabbit polyclonal, Bethyl A300‐906A) and 1 μM goat anti‐rabbit IgG Alexa Fluor 647 (Thermo Fischer, A‐21245). […]
We then computed the mean y max value across all of these peptides and refit concentration‐dependent binding curves for all peptide sequences to the Langmuir isotherm equation using this experimentally determined y max value for all peptide sequences and fitting only the K d term. […]

PP1γ [2] = biological target: T1, PP1γ; test: ITC of RVxF model peptides with PP1γ; assay type: binding; settings: peptide ~450 μM titrated into PP1γ ~35 μM, 25°C, 50 mM sodium phosphate, 150 mM NaCl, 0.5 mM TCEP, pH 7.5, single-site model
Procedure: Prior to ITC experiments, both the protein and the peptides were extensively dialyzed against 50 mM sodium phosphate, 150 mM NaCl, and 0.5 mM TCEP, pH 7.5. All ITC experiments were performed on an Auto‐iTC200 instrument (Microcal, Malvern Instruments Ltd.) at 25°C. Both peptide and PP1γ concentrations were determined using a spectrometer by measuring the absorbance at 280 nm and applying values for the extinction coefficients computed from the corresponding sequences by the ProtParam program (http://web.expasy.org/protparam/). The peptides at approximately 450 μM concentration were loaded into the syringe and titrated into the calorimetric cell containing the PP1γ at ~ 35 μM. The reference cell was filled with distilled water. In all assays, the titration sequence consisted of a single 0.4 μl injection followed by 19 injections, 2 μl each, with 150 s spacing between injections to ensure that the thermal power returns to the baseline before the next injection. The stirring speed was 750 rpm. Control experiments with the peptides injected in the sample cell filled with buffer were carried out under the same experimental conditions. […] The heats per injection normalized per mole of injectant versus the molar ratio [peptide]/[PP1γ] were fitted to a single‐site model. Data were analyzed with MicroCal PEAQ‐ITC (version 1.1.0.1262) analysis software (Malvern Instruments Ltd.).

PP2A‐B55α = test: Phosphate release assay (PiColorLock / malachite green) with PP2A-B55; assay type: biochemical, human; settings: B55 WT, peptide 120 μM, 80 ng phosphatase, 20 min 30°C
Procedure: PP2A‐B55α holoenzymes were purified from HeLa cells stably expressing FLAG‐tagged B55α as previously described (Kruse et al, [2020]).
In vitro phosphatase assays were performed with E. coli–expressed PP1γ or PP2A‐B55α purified from HeLa cell (ATCC, RRID CVCL_0030) extracts as described previously. […] The PiColorLock inorganic phosphate detection kit (abcam) was used to detect the amount of phosphate released from the phosphorylated peptides.

Venus-PP1 = test: Affinity purification (pulldown) of YFP/Venus-PP1 from mitotic cells, label-free LC-MS/MS; assay type: binding, human
Description: (§1) We defined interactomes of PP1γ and B55α during mitosis using affinity purification of YFP‐tagged subunits and also proximity‐dependent ligation using miniTurbo to capture interactions at mitotic exit (Appendix Fig S8) (Branon et al, [2018]; Sears et al, [2019]). […] These identified proteins can constitute both regulators and substrates. […] To understand how these protein interactions might shape dephosphorylation, we first aimed at generating interactome networks and overlay regulated sites. We integrated interactomes and information from the STRING database (Szklarczyk et al, [2023]) with our regulated phosphorylation sites to generate a network of complexes and dephosphorylation sites (Fig 4C and Appendix Fig S9A). For PP1, we also integrated information on known and predicted RVxF motifs (Smith et al, [2019]). […] As an example, CASC5 (KNL1) could scaffold PP1 dephosphorylation of CENPC S261, a phosphorylation site in a nuclear localization sequence. In agreement with previous work, PP2A‐B55 regulated dephosphorylation of several nucleoporins at mitotic exit consistent with Nup153 and TPR being present in the interactomes (Cundell et al, [2016]).
(§2) PP1 and B55 cDNAs were cloned into modified versions of pcDNA5/FRT/TO (Invitrogen) to make N‐terminal fusions to YFP, BioID, or TurboID. Stable cell lines were generated into HeLa/FRT/TRex cells (kind gift from S. Taylor), and for YFP affinity, purification cells were synchronized with thymidine and released into nocodazole‐containing media to arrest them in mitosis. Cells were resuspended in lysis buffer (50 mM NaCl, 50 mM Tris 7,4, 1 mM EDTA, 0.1% NP40, 1 mM DTT, and protease inhibitor cocktail), and following sonication, the lysate was clarified by centrifugation. Cell lysate was incubated with GFP‐Trap beads (Chromotek) for 1 h, washed 3 × 1 ml with lysis buffer, and resuspended in SDS–PAGE loading buffer.
(§3) The Q‐Exactive Plus was set to perform an Orbitrap MS1 scan (R = 70 K; AGC target = 1e6) from 350 to 1,500 m/z, followed by HCD MS2 spectra on the 10 most abundant precursor ions detected by Orbitrap scanning (R = 17.5 K; AGC target = 1e5; max ion time = 50 ms) before repeating the cycle. Precursor ions were isolated for HCD by quadrupole isolation at width = 1 m/z and HCD fragmentation at 26 normalized collision energy (NCE). Charge state 2, 3, and 4 ions were selected for MS2. Precursor ions were added to a dynamic exclusion list ± 20 ppm for 15 s. […] Static modifications included carbamidomethylcysteine and variable modifications included oxidized methionine. […] Missing values were imputed from a normal distribution in Perseus to enable statistical analysis and visualization by volcano plot (Tyanova et al, [2016]). Statistical analysis was carried out in Perseus by two‐tailed Student's t‐test.

Venus-B55 = test: Affinity purification (pulldown) of YFP/Venus-B55 from mitotic cells, label-free LC-MS/MS; assay type: binding, human
Description: as §1, §2, §3

T1 sequence (P36873 whole entry): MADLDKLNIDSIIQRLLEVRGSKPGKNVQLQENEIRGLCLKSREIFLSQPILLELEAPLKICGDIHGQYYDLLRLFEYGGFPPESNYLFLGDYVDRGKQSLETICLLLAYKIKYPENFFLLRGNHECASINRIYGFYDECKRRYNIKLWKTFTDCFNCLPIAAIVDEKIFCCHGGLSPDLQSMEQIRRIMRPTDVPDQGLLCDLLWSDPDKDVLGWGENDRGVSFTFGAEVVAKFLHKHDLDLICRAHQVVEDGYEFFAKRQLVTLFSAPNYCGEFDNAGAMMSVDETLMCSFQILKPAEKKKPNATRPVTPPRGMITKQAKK

AKNSRVTFSEDDEII
Kd (PP1γ [1]): 3.4 ± 0.7 µM

AKNSRVTFSEDDEIW
Kd (PP1γ [2]): 0.19 ± 0.01 µM

INCENP WT: phosphorylated INCENP 53-67 peptide (T59), wild type (PELMPK[pT]PSQKNRRK; UniProt Q9NQS7 53-67, looked up, fragment)
phosphate released from peptide by PP2A-B55 (in vitro dephosphorylation assay, Fig 3B) (PP2A‐B55α; 50 mM Tris pH 7.4, 1 mM MnCl2, 150 mM NaCl, technical repeat 1): 0,806 | phosphate released from peptide by PP2A-B55 (in vitro dephosphorylation assay, Fig 3B) (PP2A‐B55α; technical repeat 2): 0,858 | phosphate released from peptide by PP2A-B55 (in vitro dephosphorylation assay, Fig 3B) (PP2A‐B55α; technical repeat 3): 0,812

TOP2A_HUMAN
B55 or PP1? (Venus-PP1; assignment of the co-purified protein as interactor of Venus-B55 and/or Venus-PP1 (both pulldowns)): B55/PP1 | log2 ratio [Venus-PP1/Venus] (Venus-PP1; enrichment in Venus-PP1 pulldown over Venus control, from 3 replicates each): 4.66 | log2 IBAQ [Venus-PP1 1] (Venus-PP1; pulldown of Venus-PP1 from mitotic cells, label-free LC-MS/MS, log2 IBAQ of co-purified protein, replicate 1): 19.15 | log2 IBAQ [Venus-PP1 2] (Venus-PP1; pulldown of Venus-PP1 from mitotic cells, label-free LC-MS/MS, log2 IBAQ of co-purified protein, replicate 2): 19.33 | log2 IBAQ [Venus-PP1 3] (Venus-PP1; pulldown of Venus-PP1 from mitotic cells, label-free LC-MS/MS, log2 IBAQ of co-purified protein, replicate 3): 21.02 | log2 ratio [Venus-B55/Venus] (Venus-B55; enrichment in Venus-B55 pulldown over Venus control, from 3 replicates each): 1.41 | log2 IBAQ [Venus-B55 1] (Venus-B55; pulldown of Venus-B55 from mitotic cells, label-free LC-MS/MS, log2 IBAQ of co-purified protein, replicate 1): 16.03 | log2 IBAQ [Venus-B55 2] (Venus-B55; pulldown of Venus-B55 from mitotic cells, label-free LC-MS/MS, log2 IBAQ of co-purified protein, replicate 2): 16.59 | log2 IBAQ [Venus-B55 3] (Venus-B55; pulldown of Venus-B55 from mitotic cells, label-free LC-MS/MS, log2 IBAQ of co-purified protein, replicate 3): 15.37
